Experimental data taken from PubChem BioAssay AID248 (DTP/NCI, 2004).
Where “and” joins values, the source holds several entries; their conditions need not be identical. Equal values may be shown once. Inconclusive results and toxic doses are left out. No stated cut-off is given here; in the data, active means T/C of 150% or more; inactive means T/C below 125%.

Tested on: L1210 leukemia ip in BDF1 mice, survival T/C
Assay: NCI In Vivo Anticancer Drug Screen. Data for tumor model L1210 Leukemia (intraperitoneal) in B6D2F1 (BDF1) mice
Settings: endpoint: mean survival time, higher = longer survival
Outline: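 Value reflects the ratio of survival in compound-treated mice to survival in vehicle-treated controls, with both groups carrying the same transplanted tumor.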

[1] = dose: 50.0 mg/kg/injection, schedule: Q01DX009 (ip), vehicle: Klucel (hydroxypropylcellulose) (HPC)
[2] = dose: 100.0 mg/kg/injection, schedule: Q01DX009 (ip), vehicle: Klucel (hydroxypropylcellulose) (HPC)
[3] = dose: 100.0 mg/kg/injection, schedule: Q04DX003 (ip), vehicle: Klucel (hydroxypropylcellulose) (HPC)
[4] = dose: 200.0 mg/kg/injection, schedule: Q01DX009 (ip), vehicle: Klucel (hydroxypropylcellulose) (HPC)
[5] = dose: 200.0 mg/kg/injection, schedule: Q04DX003 (ip), vehicle: Klucel (hydroxypropylcellulose) (HPC)
[6] = dose: 400.0 mg/kg/injection, schedule: Q01DX009 (ip), vehicle: Klucel (hydroxypropylcellulose) (HPC)
[7] = dose: 400.0 mg/kg/injection, schedule: Q04DX003 (ip), vehicle: Klucel (hydroxypropylcellulose) (HPC)
[8] = dose: 100.0 mg/kg/injection, schedule: Q01DX009 (ip), vehicle: saline
[9] = dose: 100.0 mg/kg/injection, schedule: Q04DX002 (ip), vehicle: Klucel (hydroxypropylcellulose) (HPC)
[10] = dose: 200.0 mg/kg/injection, schedule: Q04DX002 (ip), vehicle: Klucel (hydroxypropylcellulose) (HPC)
[11] = dose: 400.0 mg/kg/injection, schedule: Q04DX002 (ip), vehicle: Klucel (hydroxypropylcellulose) (HPC)
[12] = dose: 50.0 mg/kg/injection, schedule: Q01DX001 (ip), vehicle: saline
[13] = dose: 100.0 mg/kg/injection, schedule: Q01DX001 (ip), vehicle: saline
[14] = dose: 200.0 mg/kg/injection, schedule: Q01DX001 (ip), vehicle: saline
[15] = dose: 400.0 mg/kg/injection, schedule: Q01DX001 (ip), vehicle: saline
[16] = dose: 50.0 mg/kg/injection, schedule: Q01DX009 (ip), vehicle: saline
[17] = dose: 100.0 mg/kg/injection, schedule: Q04DX002 (ip), vehicle: saline with Tween-80
[18] = dose: 200.0 mg/kg/injection, schedule: Q04DX002 (ip), vehicle: saline with Tween-80
[19] = dose: 50.0 mg/kg/injection, schedule: Q01DX009 (ip), vehicle: saline with Tween-80
[20] = dose: 100.0 mg/kg/injection, schedule: Q04DX003 (ip), vehicle: saline with Tween-80
[21] = dose: 200.0 mg/kg/injection, schedule: Q04DX003 (ip), vehicle: saline with Tween-80
[22] = dose: 400.0 mg/kg/injection, schedule: Q04DX003 (ip), vehicle: saline with Tween-80
[23] = dose: 100.0 mg/kg/injection, schedule: Q01DX009 (ip), vehicle: saline with Tween-80
[24] = dose: 200.0 mg/kg/injection, schedule: Q01DX009 (ip), vehicle: saline with Tween-80

Measured: T/C

CN(N=O)c1ccc(N(C)N=O)cc1
inactive: [1] 100 % of control | [2] 97 % of control | [3] 96 % of control | [4] 102 % of control | [5] 93 % of control | [6] 92 % of control | [7] 96 % of control

O=C(Nc1ccc(Cl)cc1[N+](=O)[O-])Oc1ccc(C2CCCCC2)cc1
inactive: [2] 93 % of control | [4] 89 % of control | [6] 88 % of control

C#CCOC1CCCCO1 (stereo not given)
inactive: dose: 100.0 mg/kg/injection, schedule: Q04DX003 (ip), vehicle: saline 104 % of control

O=C1/C(=C\c2ccccc2)COC/C1=C\c1ccccc1
inactive: [8] 94 % of control | dose: 400.0 mg/kg/injection, schedule: Q01DX009 (ip), vehicle: saline 87 % of control

O=C1C=CC(=O)N1C(c1ccccc1)c1ccccc1
inactive: dose: 12.5 mg/kg/injection, schedule: Q01DX009 (ip), vehicle: Klucel (hydroxypropylcellulose) (HPC) 102 % of control | dose: 25.0 mg/kg/injection, schedule: Q01DX009 (ip), vehicle: Klucel (hydroxypropylcellulose) (HPC) 102 % of control | [1] 102 % of control | dose: 50.0 mg/kg/injection, schedule: Q04DX002 (ip), vehicle: Klucel (hydroxypropylcellulose) (HPC) 94 % of control | [9] 88 % of control | [10] 101 % of control and 116 % of control and 91 % of control | [11] 91 % of control

CC(C)N1CCC1C (stereo not given)
inactive: dose: 100.0 mg/kg/injection, schedule: Q04DX003 (ip), vehicle: acetone 96 % of control

c1cc[c]([Sn]([S]c2ccccn2)([c]2ccccc2)[c]2ccccc2)cc1
inactive: dose: 6.25 mg/kg/injection, schedule: Q04DX002 (ip), vehicle: saline with Tween-80 93 % of control | dose: 12.5 mg/kg/injection, schedule: Q04DX002 (ip), vehicle: saline with Tween-80 93 % of control | dose: 25.0 mg/kg/injection, schedule: Q04DX002 (ip), vehicle: saline with Tween-80 108 % of control

NC(=S)NN=C1CCCCCCCCCC1
inactive: [12] 101 % of control | [13] 101 % of control | [14] 97 % of control | [15] 106 % of control

CSc1ccccc1C(=O)NNS(=O)(=O)c1ccc(C)cc1
inactive: [2] 101 % of control | [3] 95 % of control | [4] 103 % of control | [5] 97 % of control | [6] 95 % of control | [7] 97 % of control

CCCC(C)OS(=O)(=O)c1ccc(N)cc1 (stereo not given)
inactive: [2] 113 % of control | [4] 95 % of control

O=C(NO)C(=O)NO
inactive: [16] 98 % of control | [8] 113 % of control | [17] 90 % of control | dose: 200.0 mg/kg/injection, schedule: Q01DX009 (ip), vehicle: saline 117 % of control | [18] 107 % of control | dose: 400.0 mg/kg/injection, schedule: Q04DX002 (ip), vehicle: saline with Tween-80 110 % of control

O=C(C[n+]1ccccc1)N/N=C/c1cccc([N+](=O)[O-])c1
inactive: [19] 91 % of control

CCN(CC)CCN1C(=O)C2CCCCC2C1=O (stereo not given)
inactive: [20] 101 % of control | [21] 101 % of control | [22] 97 % of control

O=C(O)CSC(C(=O)O)c1ccccc1 (stereo not given)
inactive: [19] 93 % of control | [23] 92 % of control | [20] 94 % of control | [24] 93 % of control | [21] 97 % of control

CNC(=O)NC1CCOCC1
inactive: [13] 100 % of control | [14] 96 % of control | [15] 96 % of control

CCN(CC)CCOC(=O)c1ccc(N=C=S)cc1
inactive: dose: 12.5 mg/kg/injection, schedule: Q01DX009 (ip), vehicle: saline 102 % of control | dose: 25.0 mg/kg/injection, schedule: Q01DX009 (ip), vehicle: saline 100 % of control | [16] 96 % of control

COC(=O)C1C2C=CC(C2)C1C(=O)OC (stereo not given)
inactive: [20] 99 % of control | [21] 105 % of control | [22] 92 % of control

O=C1C=C(NC(Cc2cnc[nH]2)C(=O)O)c2ccccc2C1=O (stereo not given)
inactive: [19] 97 % of control | [23] 100 % of control | [24] 93 % of control

O=Nc1ccc(O)cc1I
inactive: [9] 100 % of control | [10] 97 % of control | [11] 93 % of control

CCCCOP(=O)(OCCCC)Oc1ccc2ccccc2c1
inactive: dose: 50.0 mg/kg/injection, schedule: Q01DX009 (ip), vehicle: other 97 % of control and 88 % of control | dose: 100.0 mg/kg/injection, schedule: Q01DX009 (ip), vehicle: other 94 % of control | dose: 100.0 mg/kg/injection, schedule: Q04DX002 (ip), vehicle: other 94 % of control and 96 % of control | dose: 100.0 mg/kg/injection, schedule: Q04DX003 (ip), vehicle: carboxymethylcellulose (CMC) 102 % of control | dose: 200.0 mg/kg/injection, schedule: Q01DX009 (ip), vehicle: other 100 % of control and 102 % of control | dose: 200.0 mg/kg/injection, schedule: Q04DX002 (ip), vehicle: other 96 % of control and 92 % of control | dose: 200.0 mg/kg/injection, schedule: Q04DX003 (ip), vehicle: carboxymethylcellulose (CMC) 100 % of control | dose: 400.0 mg/kg/injection, schedule: Q04DX002 (ip), vehicle: other 94 % of control and 96 % of control | dose: 400.0 mg/kg/injection, schedule: Q04DX003 (ip), vehicle: carboxymethylcellulose (CMC) 97 % of control

NC(CSSCC(N)=NCC12CC3CC(CC(C3)C1)C2)=NCC12CC3CC(CC(C3)C1)C2
inactive: [17] 97 % of control | [18] 105 % of control

CCOC1CCN(CCCn2c3ccccc3c3ccc(C(C)=O)cc32)CC1
inactive: [13] 95 % of control | [14] 92 % of control

CCOC(=O)CC(C)(C)NCc1ccccc1
inactive: [3] 96 % of control

CNC(=O)OC(C)CN(c1ccccc1)c1ccccc1 (stereo not given)
inactive: [12] 98 % of control | [13] 104 % of control | [14] 98 % of control | [15] 102 % of control

O=C(C/C(=N/O)c1ccccc1)c1ccccc1
inactive: [12] 98 % of control | [13] 102 % of control | [14] 96 % of control | [15] 90 % of control

Fc1cc(F)c(F)c(Oc2c(F)c(F)c(F)c(F)c2F)c1F
inactive: [3] 100 % of control | [5] 95 % of control | [7] 93 % of control

Cc1c([N+](=O)[O-])cc(CCn2cnc3c(=O)[nH]cnc32)cc1[N+](=O)[O-]
inactive: dose: 50.0 mg/kg/injection, schedule: Q01DX001 (ip), vehicle: carboxymethylcellulose (CMC) 98 % of control | dose: 100.0 mg/kg/injection, schedule: Q01DX001 (ip), vehicle: carboxymethylcellulose (CMC) 98 % of control | dose: 200.0 mg/kg/injection, schedule: Q01DX001 (ip), vehicle: carboxymethylcellulose (CMC) 95 % of control | dose: 400.0 mg/kg/injection, schedule: Q01DX001 (ip), vehicle: carboxymethylcellulose (CMC) 104 % of control
